Here are results for 12 molecules from ChEMBL document CHEMBL4000239, “A novel piperazine linked β-amino alcohols bearing a benzosuberone scaffolds as anti-proliferative agents” (2017).

Common to all, as to format: functional
The test system of one experiment is A549. In words: Cytotoxicity against human A549 cells assessed as growth inhibition after 48 hrs by SRB assay. Particulars: A549, 48 h. A general note: In SRB staining, fixed cells bind dye roughly in proportion to their protein.
A further experiment concerns MDA-MB-231. The experiment in a line: Cytotoxicity against human MDA-MB-231 cells assessed as growth inhibition after 48 hrs by SRB assay. The settings on record: MDA-MB-231, 48 h.
A further experiment relates to HeLa. In words: Cytotoxicity against human HeLa cells assessed as growth inhibition after 48 hrs by SRB assay.
A short description of experiment [1]: Cytotoxicity against human MiaPaCa cells assessed as growth inhibition after 48 hrs by SRB assay. The settings on record: MIA PaCa-2, 48 h.

In the case of `Cc1cc2c(cc1C)C(Cl)=C(COCC(O)CN1CCC(Cc3ccccc3)CC1)CCC2` (stereo not drawn), the GI50 (commonly the concentration that inhibits growth by half) was determined as 1800 nM in the experiment on A549, 2900 nM in the experiment on MDA-MB-231, 1400 nM in the experiment with HeLa and 1200 nM in experiment [1].

Turning to `Cc1cc2c(cc1C)C(Cl)=C(COCC(O)CN1CCN(c3ccc(C(F)(F)F)cc3)CC1)CCC2` (stereo not drawn), the GI50 was 3000 nM with A549, 2500 nM in the experiment with MDA-MB-231, 3800 nM with HeLa and 2000 nM in experiment [1].

As for `Cc1cc2c(cc1C)C(Cl)=C(COCC(O)CN1CCN(c3ccc([N+](=O)[O-])cc3)CC1)CCC2` (stereo not drawn), the GI50 was found to be 23 nM in the experiment on A549, 10 nM in the experiment on MDA-MB-231, 97 nM with HeLa and 56 nM in experiment [1].

For `Cc1cc2c(cc1C)C(Cl)=C(COCC(O)CN1CCN(c3ccccc3)CC1)CCC2` (stereo not drawn), the GI50 in the experiment with A549 was 5800 nM; in the experiment with MDA-MB-231, 7800 nM; in the experiment with HeLa it was 6900 nM; in experiment [1] it was 8800 nM.

Consider `Cc1cc2c(cc1C)C(Cl)=C(COCC(O)CN1CCOCC1)CCC2` (stereo not drawn), for which the GI50 in the experiment with A549 was found to be 5200 nM; in the experiment with MDA-MB-231, 7900 nM; in the experiment with HeLa, 7400 nM; in experiment [1], 5600 nM.

Consider `Cc1cc2c(cc1C)C(Cl)=C(COCC(O)CN1CCN(c3ccccc3F)CC1)CCC2` (stereo not drawn), for which the GI50 in the experiment with A549 was determined as 6300 nM; in the experiment on MDA-MB-231, 9000 nM; with HeLa, 7800 nM; in experiment [1] it was 9600 nM.

With `CCOC(=O)N1CCN(CC(O)COCC2=C(Cl)c3cc(C)c(C)cc3CCC2)CC1` (stereo not drawn), the GI50 in the experiment on A549 stood at 4000 nM; in the experiment with MDA-MB-231, 7300 nM; with HeLa, 7200 nM; in experiment [1], 7900 nM.

For the molecule `Cc1cc2c(cc1C)C(Cl)=C(COCC(O)CN1CCSCC1)CCC2` (stereo not drawn), the GI50 with A549 is 900 nM; in the experiment on MDA-MB-231, 2900 nM; in the experiment with HeLa it was 1000 nM; in experiment [1] it was 1500 nM.

As to `Cc1cc2c(cc1C)C(Cl)=C(COCC(O)CN1CCN(C)CC1)CCC2` (stereo not drawn), the GI50 in the experiment on A549 was determined as 18200 nM; in the experiment on MDA-MB-231 it was 20800 nM; with HeLa, 16300 nM; in experiment [1], 24400 nM.

For `COc1ccccc1N1CCN(CC(O)COCC2=C(Cl)c3cc(C)c(C)cc3CCC2)CC1` (stereo not drawn), the GI50 with A549 came to 2100 nM; in the experiment on MDA-MB-231, 3000 nM; in the experiment on HeLa, 2400 nM; in experiment [1], 2800 nM.

Consider `Cc1cc2c(cc1C)C(Cl)=C(COCC(O)CN1CCCCC1)CCC2` (stereo not drawn), for which the GI50 in the experiment on A549 turned out to be 1500 nM; in the experiment on MDA-MB-231, 2100 nM; with HeLa, 1700 nM; in experiment [1] it was 2600 nM.

Regarding `COC(=O)Nc1nc2cc(C(=O)c3cccs3)ccc2[nH]1` [NOCODAZOLE], the GI50 in the experiment on A549 turned out to be 90 nM; in the experiment with MDA-MB-231, 65 nM; with HeLa, 86 nM; in experiment [1], 91 nM.
